≈ marks a conversion by molar mass, not a printed value.
How the values were obtained:
Format in all cases: cell-based
[1] = system: Aspergillus fumigatus AF293; assay: MIC, RPMI medium; conditions: Aspergillus fumigatus, AF293, MIC banded into grades, read-out: MIC grade, A. fumigatus
Experimental: (§1) Between 1 and 5 mgs of compound were accurately weighed out into a sterile Eppendorf tube. The compound was dissolved in DMSO to give a solution containing 5 mg/mL. Tubes were stored at −20° C. until required.
(§2) On the day of testing thawed solutions were vortex mixed to ensure homogeneity. 30 μL of solution was removed and added to 570 μL of sterile water in a separate sterile Eppendorf. The thoroughly mixed solution was used to prepare a series of doubling dilutions in water, in a deep well plate. Thirteen replicate plates were prepared using a Minitrak by aspirating 20 μL from each well into eleven clear polystyrene 96 well plates.
(§3) Assays were also performed in RPMI medium for both Aspergillus spp. (strains described above) and Candida spp. (Candida albicans, Candida glabrata, Candida krusei, Candida parapsilosis and Candida tropicalis). To perform MIC tests in this medium, dilutions of compounds are prepared in microtitre plates as described above. Fungal strains to be tested are grown and harvested in an identical manner to that described above, and each organism suspension was diluted in RPMI medium, containing 2% glucose and 0.135 M MOPS buffer (pH 7.0) to 0.5-2×10^4 cfu/mL, rather than in YAG medium. 80 μL of an organism suspension was added to each well of the plate containing drug dilutions.
(§4) This produced MIC plates with a drug range 50-0.05 mg/L and organism inocula of 1−2×10^4 cfu/mL. All plates were incubated for 24-48 h at 35° C. Growth was assessed by monitoring the optical density at 485 nm for each well. The MIC of a compound is the lowest drug concentration that inhibits growth of an organism by >80% compared with a drug free control.
(§5) The following organisms were tested: Aspergillus flavus, Aspergillus fumigatus AF293 and AF210, Aspergillus niger, Aspergillus terreus AT4 and AT49, Candida albicans, Candida glabrata, Candida krusei, Candida parapsilosis and Candida tropicalis.

Aspergillus niger [2] = assay: MIC, RPMI medium; conditions: Aspergillus niger, MIC banded into grades, read-out: MIC grade, A. niger
Experimental: as §1, §2, §3, §4, §5

Aspergillus flavus [3] = assay: MIC, RPMI medium; conditions: Aspergillus flavus, MIC banded into grades, read-out: MIC grade, A. flavus
Experimental: as §1, §2, §3, §4, §5

[4] = system: Aspergillus fumigatus AF210; assay: MIC, RPMI medium; conditions: Aspergillus fumigatus, AF210, MIC banded into grades, read-out: MIC grade, A. fumigatus 210
Experimental: as §1, §2, §3, §4, §5

Aspergillus terreus AT49 [5] = assay: MIC, RPMI medium; conditions: Aspergillus terreus, AT49, MIC banded into grades, read-out: MIC grade, A. terreus 49
Experimental: as §1, §2, §3, §4, §5

Aspergillus terreus AT4 [6] = assay: MIC, RPMI medium; conditions: Aspergillus terreus, AT4, MIC banded into grades, read-out: MIC grade, A. terreus
Experimental: as §1, §2, §3, §4, §5

[7] = system: Aspergillus fumigatus AF293; assay: MIC, YAG medium; conditions: Aspergillus fumigatus, 24 h at 35° C, MIC banded into grades, read-out: MIC grade, A. fumigatus
Experimental: as §1, §2
(§6) Spores of Aspergillus spp. (Aspergillus fumigatus [two strains], Aspergillus terreus [two strains], Aspergillus niger and Aspergillus flavus) were harvested from cultures grown on Sabarauds agar for 5 days, and resuspended in PBS/Tween 80 to approx 1×10^7 cfu/mL. Each organism suspension was diluted in YAG medium (1% glucose, 1% ammonium chloride and 0.5% yeast extract) to 0.5−2×10^4 cfu/mL. 80 μL of an organism suspension was added to each well of the plate containing drug dilutions.
as §4, with “cfu/mL for Aspergillus spp.” for “cfu/mL.”, “24” for “24-48”, “>70%” for “>80%”, “control. MICs are recorded as mg/L. In cases where the MIC of an organism is […] mg/L the MIC is repeated using a concentration range of 0.5-0.0005 mg/L.” for “control.”
as §5

Aspergillus niger [8] = assay: MIC, YAG medium; conditions: Aspergillus niger, 24 h at 35° C, MIC banded into grades, read-out: MIC grade, A. niger
Experimental: as §1, §2, §6
as §4, with “cfu/mL for Aspergillus spp.” for “cfu/mL.”, “24” for “24-48”, “>70%” for “>80%”, “control. MICs are recorded as mg/L. In cases where the MIC of an organism is […] mg/L the MIC is repeated using a concentration range of 0.5-0.0005 mg/L.” for “control.”
as §5

Aspergillus flavus [9] = assay: MIC, YAG medium; conditions: Aspergillus flavus, 24 h, 24 h at 35° C, MIC banded into grades, read-out: MIC grade, A. flavus
Experimental: as §1, §2, §6
as §4, with “cfu/mL for Aspergillus spp.” for “cfu/mL.”, “24” for “24-48”, “>70%” for “>80%”, “control. MICs are recorded as mg/L. In cases where the MIC of an organism is […] mg/L the MIC is repeated using a concentration range of 0.5-0.0005 mg/L.” for “control.”
as §5

[10] = system: Aspergillus fumigatus AF210; assay: MIC, YAG medium; conditions: Aspergillus fumigatus, 24 h at 35° C, MIC banded into grades, read-out: MIC grade, A. fumigatus 210
Experimental: as §1, §2, §6
as §4, with “cfu/mL for Aspergillus spp.” for “cfu/mL.”, “24” for “24-48”, “>70%” for “>80%”, “control. MICs are recorded as mg/L. In cases where the MIC of an organism is […] mg/L the MIC is repeated using a concentration range of 0.5-0.0005 mg/L.” for “control.”
as §5

Aspergillus terreus AT49 [11] = assay: MIC, YAG medium; conditions: Aspergillus terreus, 24 h at 35° C, MIC banded into grades, read-out: MIC grade, A. terreus 49
Experimental: as §1, §2, §6
as §4, with “cfu/mL for Aspergillus spp.” for “cfu/mL.”, “24” for “24-48”, “>70%” for “>80%”, “control. MICs are recorded as mg/L. In cases where the MIC of an organism is […] mg/L the MIC is repeated using a concentration range of 0.5-0.0005 mg/L.” for “control.”
as §5

Aspergillus terreus AT4 [12] = assay: MIC, YAG medium; conditions: Aspergillus terreus, 24 h at 35° C, MIC banded into grades, read-out: MIC grade, A. terreus
Experimental: as §1, §2, §6
as §4, with “cfu/mL for Aspergillus spp.” for “cfu/mL.”, “24” for “24-48”, “>70%” for “>80%”, “control. MICs are recorded as mg/L. In cases where the MIC of an organism is […] mg/L the MIC is repeated using a concentration range of 0.5-0.0005 mg/L.” for “control.”
as §5

MIC [1] [µg/mL]	MIC (Aspergillus niger [2]) [µg/mL]	MIC (Aspergillus flavus [3]) [µg/mL]	MIC [4] [µg/mL]	MIC (Aspergillus terreus AT49 [5]) [µg/mL]	MIC (Aspergillus terreus AT4 [6]) [µg/mL]	MIC [7] [µg/mL]	MIC (Aspergillus niger [8]) [µg/mL]	MIC (Aspergillus flavus [9]) [µg/mL]	MIC [10] [µg/mL]	MIC (Aspergillus terreus AT49 [11]) [µg/mL]	MIC (Aspergillus terreus AT4 [12]) [µg/mL]	SMILES
> 10	> 10	> 10	> 10	> 10	> 10	> 10	> 10	> 10	> 10	> 10	> 10	Cc1cc(C)nc(N2CCN(c3ccc(NC(=O)C(=O)c4c(-c5ccccc5)ccn4CC(N)=O)cc3)CC2)c1 [Example 75, 2-(1-Carbamoylmethyl-3-phenyl-1H-pyrrol-2-yl)-N-{4-[4-(4,6-dimethyl-pyridin-2-yl)-piperazin-1-yl]-phenyl}-2-oxo-acetamide]
< 1	< 1	< 1	< 1	< 1	< 1	< 1	< 1	< 1	< 1	< 1	< 1	COCc1cc(-c2ccccc2)c(C(=O)C(=O)Nc2ccc(N3CCN(c4cc(C)cc(C)n4)CC3)cc2)n1C [Example 130, N-{4-[4-(4,6-Dimethyl-pyridin-2-yl)-piperazin-1-yl]-phenyl}-2-(5-methoxymethyl-1-methyl-3-phenyl-1H-pyrrol-2-yl)-2-oxo-acetamide]
< 1	< 1	1 to 10 (≈ 1.77 to 17.7 µM)	< 1	1 to 10 (≈ 1.77 to 17.7 µM)	1 to 10 (≈ 1.77 to 17.7 µM)	< 1	< 1	1 to 10 (≈ 1.77 to 17.7 µM)	< 1	< 1	< 1	COCCCn1c(C)cc(-c2ccccc2)c1C(=O)C(=O)Nc1ccc(N2CCN(c3cc(C)cc(C)n3)CC2)cc1 [Example 28, N-{4-[4-(4,6-Dimethyl-pyridin-2-yl)-piperazin-1-yl]-phenyl}-2-[1-(3-methoxy-propyl)-5-methyl-3-phenyl-1H-pyrrol-2-yl]-2-oxo-acetamide]
< 1	> 10	1 to 10 (≈ 1.97 to 19.7 µM)	< 1	< 1	< 1	< 1	> 10	< 1	< 1	< 1	< 1	Cc1cc(C)nc(N2CCN(c3ccc(NC(=O)C(=O)c4c(-c5ccccc5)c(C)cn4C)cc3)CC2)c1 [Example 18, 2-(1,4-Dimethyl-3-phenyl-1H-pyrrol-2-yl)-N-{4-[4-(4,6-dimethyl-pyridin-2-yl)-piperazin-1-yl]-phenyl}-2-oxo-acetamide]
< 1	< 1	< 1	< 1	< 1	< 1	< 1	< 1	< 1	< 1	< 1	< 1	Cc1cc(-c2ccccc2)c(C(=O)C(=O)Nc2ccc3ccccc3c2)n1C [Example 44, 2-(1,5-Dimethyl-3-phenyl-1H-pyrrol-2-yl)-N-naphthalen-2-yl-2-oxo-acetamide]

Reference: patent US8993574B2, “Pyrrole antifungal agents” (F2G Ltd, priority 2008, dated 2015)
